Results reported in article PMC8691750, “Euphorbia Factor L2 ameliorates the Progression of K/BxN Serum-Induced Arthritis by Blocking TLR7 Mediated IRAK4/IKKβ/IRF5 and NF-kB Signaling Pathways” (Frontiers in Pharmacology, 2021).

Key:
[1] = test system: neutrophils, macrophages and inflammatory monocytes in the blood; assay: Flow cytometry of myeloid cells in peripheral blood of STA mice; type: in vivo, C57BL/6 mice; conditions: EFL2 40 mg/kg i.p.
Procedure: K/BxN serum was collected from K/BxN mice at 8 weeks of age, pooled, aliquoted and stored at -20 °C. K/BxN serum-transfer arthritis (STA) model was induced by intraperitoneal (i.p.) application of 150 μL of serum at day 0. Clinical score for arthritis severity was assessed using a 0–4 point scale for each paw at various time points (0–16 total score) as described previously ([Luo et al., 2011]). 8-week old male C57BL/6 mice were purchased from Dashuo Animal Center (China, Chengdu), maintained at 25°C, and exposed to 12-h light and dark cycles. Mice were fed with standard laboratory chow and water with 1 week of acclimatization. Naive mice were used as the control group. […]
150 μL peripheral blood and the hind ankles were collected on day 5 and 13 post KBx/N serum transfer, respectively. […] Data were acquired using a BD FACSCalibur flow cytometer (BD Biosciences) and were analyzed by using FlowJo software (Version 7.6.1).

[2] = test system: RAW264.7 cells; assay: Cell viability, CCK8 assay, RAW264.7; type: cell-based, mouse; conditions: CCK8, 0.1-100 μM, 20 h
Procedure: RAW264.7 cells, a mouse macrophage cell line, were cultured in DMEM medium containing 10% fetal bovine serum (FBS), 1% penicillin-streptomycin and maintained at 37 °C in 5% CO2 humidified air. Bone marrow-derived macrophages (BMDMs) generation was performed as following description. In brief, bone marrow cells were harvested from tibias and femurs of C57BL/6 mice and differentiated for 7 days in DMEM medium supplemented with 10% FBS, 1% penicillin-streptomycin and 50 ng/ml M-CSF. For human peripheral blood mononuclear cells (PBMCs) preparation, 5 ml peripheral venous blood was obtained from healthy donors in West China Hospital. PBMCs were isolated with Human Lymphocyte Separation Medium (LTS1077, Tian Jing, China) according to the manufacturer’s instructions. The experimental protocols were performed according to the approved guidelines established by the Institutional Human Research Subject Protection Committee of the Ethics Committee of West China Hospital, Sichuan University, China.
The effects of EFL2 on RAW264.7 cells, BMDMs and PBMCs viability were evaluated by Cell Counting Kit-8 (CCK8) assay (Dojindo, Japan). […] The optical absorbance at 450 nm was read with a Biotek Eon™ microplate reader (Biotek, Vermont, United States).

[3] = test system: TLR7-mediated NF-κB signaling pathway (IKKα/β, IκBα, p65); assay: Western blot, NF-κB pathway in R837-stimulated RAW264.7 cells; type: cell-based, mouse; conditions: R837-stimulated RAW264.7
Procedure: RAW264.7 cells (2×10^6 cells/well) were plated into 6-well plates and then incubated at 37°C in 5% CO2 for 24 h. After incubated with various concentrations of EFL2 (1, 5 and 10 µM) for 1 h, cells were then stimulated by R837 (20 μg/ml) for 30 min. Cell lysates were prepared by direct lysis in 20 µL IP buffer (Beyotime Biotechnology, Shanghai, China). After obtaining the whole cell extracts, the cytosolic and nuclear were seperated using Nuclear and Cytoplasmic Protein Extraction Kit (Beyotime Biotechnology, Shanghai, China). BCA Protein Assay Kit (Beyotime Biotechnology, Nantong, China) was applied to determine the protein concentrations. The bands corresponding to p- IKKα/β, IKKα/β, p-IκBα, IκBα, p-p65, p65, p-IRAK4, IRAK4, p-IKKβ, IKKβ, p-IRF5, IRF5, β-actin and Lamin B were visualized using a Western Blot Detection Chemiluminescence Kit (Merck). Protein extracted from the total lysates/cytoplasm and nucleus was quantified in relation to β-actin and Lamin B bands, respectively.
The antibodies used in the experiments were as follows: rabbit anti-mouse IKKα/β polyclonal antibody (1:1,000, Abways, China), rabbit anti-mouse IκBα polyclonal antibody (1:1,000, Abgent, China), rabbit anti-mouse p65 polyclonal antibody (1:1,000, Abgent, China), rabbit anti-mouse phosphorylated IKKα (Ser176)/β (Ser177) (1:1,000, Abways, China), rabbit anti-mouse phosphorylated IκBα (1:1,000, Abcam, United States), rabbit anti-mouse phosphorylated p65 (1:1,000, Abcam, United States), rabbit anti-mouse IRAK4 polyclonal antibody (1:1,000, Proteintech, United States), rabbit anti-mouse phosphorylated IRAK4 (Thr345/Ser346) (1:1,000, Affinity, United States), rabbit anti-mouse IKKβ polyclonal antibody (1:1,000, Abbkine, United States), rabbit anti-mouse phosphorylated IKKβ (Ser177) (1:1,000, Abways, China), rabbit anti-mouse IRF5 polyclonal antibody (1:1,000, Immunoway, United States), rabbit anti-mouse phosphorylated IRF5 (Ser437) (1:1,000, Affinity, United States), anti-mouse actin monoclonal antibody (1:20,000, Transgen, China) and rabbit anti-mouse LaminB monoclonal antibody (1:5,000, Abways, China).

[4] = test system: lung cancer cell line A549; set-up: method as in Lin et al., 2017; conditions: in vitro, dose-dependent; ref Lin et al., 2017; cited from earlier work

Compound: C=C1C(OC(=O)c2ccccc2)CC2C(C=C(C)C(=O)C3(OC(C)=O)CC(C)C(OC(=O)c4ccccc4)C3C1OC(C)=O)C2(C)C (stereo not shown) [EFL2, Euphorbia factor L2]
- expansions of three myeloid cells subsets in the blood [1]: more robust suppressive effect
- concentration at which significant cytotoxicity is displayed [2]: ≥ 25 µM
- IKKα/β phosphorylation ([3]; EFL2 1, 5, 10 μM): effectively inhibited
- IκB-α phosphorylation ([3]; EFL2 1, 5, 10 μM): effectively inhibited
- p65 phosphorylation ([3]; EFL2 1, 5, 10 μM): effectively inhibited
- NF-κB subunit p65 translocation activity ([3]; EFL2, also immunofluorescence): significantly suppressed
- apoptosis of A549 cells [4]: induced the apoptosis
